# According to paper PMC6078345, “Location and functions of Inebriated in the Drosophila eye” (Biology Open, 2018):
# Target: T1, Ine-P1 (Inebriated long isoform; Ine-P1::GFP, Ine-P1-EGFP) (Drosophila melanogaster, UniProt Q9VR07)
# T1 construct: full-length long isoform, GFP/EGFP fusion, cRNA in Xenopus laevis oocytes; 943 aa
# T1 sequence (Q9VR07 1-943): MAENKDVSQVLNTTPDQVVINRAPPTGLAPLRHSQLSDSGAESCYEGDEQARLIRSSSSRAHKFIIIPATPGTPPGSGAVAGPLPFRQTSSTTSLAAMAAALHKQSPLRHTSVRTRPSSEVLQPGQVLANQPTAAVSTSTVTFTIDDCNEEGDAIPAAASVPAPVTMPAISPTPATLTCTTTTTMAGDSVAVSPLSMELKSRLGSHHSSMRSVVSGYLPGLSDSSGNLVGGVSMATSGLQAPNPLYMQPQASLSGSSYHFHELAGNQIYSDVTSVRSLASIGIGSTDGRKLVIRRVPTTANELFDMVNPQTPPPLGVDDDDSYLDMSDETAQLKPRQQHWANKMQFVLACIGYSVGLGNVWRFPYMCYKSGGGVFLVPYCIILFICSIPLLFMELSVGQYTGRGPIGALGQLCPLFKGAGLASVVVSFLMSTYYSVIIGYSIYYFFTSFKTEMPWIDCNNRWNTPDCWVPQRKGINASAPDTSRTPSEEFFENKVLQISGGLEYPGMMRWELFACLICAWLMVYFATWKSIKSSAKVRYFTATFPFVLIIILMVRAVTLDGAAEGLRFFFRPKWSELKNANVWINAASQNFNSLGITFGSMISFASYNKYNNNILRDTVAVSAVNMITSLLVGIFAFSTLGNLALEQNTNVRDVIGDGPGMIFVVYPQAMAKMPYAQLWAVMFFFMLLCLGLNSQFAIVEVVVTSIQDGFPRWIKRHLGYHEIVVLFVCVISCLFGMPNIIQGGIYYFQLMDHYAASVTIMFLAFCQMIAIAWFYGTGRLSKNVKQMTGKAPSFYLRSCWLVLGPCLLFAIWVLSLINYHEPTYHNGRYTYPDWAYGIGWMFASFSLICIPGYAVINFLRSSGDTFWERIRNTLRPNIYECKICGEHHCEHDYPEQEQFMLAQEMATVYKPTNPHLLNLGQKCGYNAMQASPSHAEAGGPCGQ
# Assay: voltage-clamp current in Xenopus oocytes
# Assay type: cell-based
# Conditions: normal frog Ringer, -100 mV; dose-dependent current, 7 to 100 mM; few oocytes; transport only suggested
structure (smiles),measurement,value
NCC(=O)O [glycine],voltage-clamp current in Xenopus oocytes,glycine on Ine-P1-EGFP transfected oocytes revealed an obvious dose-dependent signal
